The NIST ThermoML archive (doi:10.1016/j.jct.2017.03.022)

Key:
[1] = xn = mol fraction of the nth substance listed; conditions: 101 kPa, Liquid; for speed of sound: Frequency=3 MHz, Single path-length method; for mass density: Vibrating tube method
[2] = 101 kPa, Liquid, Vibrating tube method

CC(O)CO (stereo not given) [1,2-propanediol] + O=C1CCCN1
[1], x2 = 0
Conditions	mass density [kg/m3]	speed of sound [m/s]
303.15 K	1028.94	1496.6
308.15 K	1025.2	1482.6
313.15 K	1021.43	1468.5
318.15 K	1017.63	1454.3
323.15 K	1013.79	1440.1

O=C1CCCN1 [2-pyrrolidinone] + OCCCO
[1], x1 = 1
Conditions	mass density [kg/m3]	speed of sound [m/s]
303.15 K	1103.07	1617.7
308.15 K	1098.99	1601.3
313.15 K	1094.9	1585.4
318.15 K	1090.82	1570.4
323.15 K	1086.75	1553.5

OCCCO [propan-1,3-diol]
[2]
Conditions	mass density [kg/m3]
303.15 K	1046.56
308.15 K	1043.43
313.15 K	1040.28
318.15 K	1037.11
323.15 K	1033.92
